These results are taken from a melting point compilation (Tetko et al.; mined from patent text by program, amines drawn as free bases though some values may be those of a salt).

SMILES strings stand for the structures.

As to `CCOC(=O)c1c(CN=[N+]=[N-])cccc1S(=O)(=O)NC(=O)Nc1nc(OC)cc(OC)n1`, the melting point is 158 to 160 °C. Under `COc1cc(CCCN(C)Cc2ccc(OC)c(OC)c2)ccc1NC(=O)c1cccc2c(=O)c3cccc(F)c3[nH]c12` stands 170 to 190 °C; under `CCOP(=O)(Cc1c2ccccc2cc2ccccc12)OCC`, 104 °C. Under `CN(C(=O)OC(C)(C)C)c1cc(Oc2cccnc2)ccc1N` stands 101 to 102 °C; under `COc1cc2c(c3c1OC(C)(C)C3)C(c1cccc(-c3ccc(N)cc3)c1)=NCC2(C)C`, 232 to 234 °C; under `CCCCCCC(C(C)O)n1cnc(C(N)=O)c1N` (stereo not drawn), 159 to 160 °C.

`CCCOc1ccccc1-c1nc(NC(=O)CCC)cc(=O)[nH]1` displayed a melting point of 177 to 178 °C. Under `O=CN(O)CCCP1(=O)ON2CCN(O1)OP(=O)(CCCN(O)C=O)O2` (stereo not drawn) stands 112 to 118 °C. Turning to `S=C(NCCc1ccccn1)NN=C(CCCCl)c1ccccc1`, the melting point was in the range of 126 to 129 °C. On to `CC(C)(C)C1=CC(=O)C=CC1=O`, for which the melting point was in the range of 55 to 60 °C. As to `COC(=O)[C@H]1C[C@H]2C(=O)NCCN2C1`, the melting point lay in the range of 70 to 74 °C.

In turn, `CON1CCC2(CC1)NC(=O)C(c1cc(Br)c(F)cc1C)=C2O` displayed a melting point of 229 to 230 °C. Take `CCCCc1nc2c(n1Cc1ccc(-c3ccccc3S(=O)(=O)NC(=O)NCCC)cc1)C(=CC(=O)OCC)CCS2`: the melting point is 170 °C. In turn, `CCCCc1c(C(=O)c2cccnc2)c2ccccc2n1C` registered a melting point of 89 to 90 °C. In the case of `Cc1ccc(N)cc1Nc1ncc(-c2ccc(C#N)cc2)o1`, the melting point amounted to 144 °C.

In turn, `Cc1cc(-c2ccc(C(F)(F)F)cc2)cn2c(-c3nc(-c4ccnc(N)c4)no3)cnc12` yielded a melting point of 264 °C. With `CN1CCC(Oc2cc3ccccc3cc2C(N)=O)C1` (stereo not drawn) the figure was 128 to 130 °C. Under `CCc1cn2ccccc2c1S(=O)(=O)c1ccc(OCCCN(C)C(C)c2ccc(OC)c(OC)c2)cc1` (stereo not drawn) stands 78 to 80 °C. `CCCC1=C(C(=O)OCC)C(c2cccc(C)c2Cl)c2c[nH]nc2N1` (stereo not drawn) showed a melting point of 198 to 200 °C.

As for `CC(C)c1cccc(OCc2cc(Br)ccc2C(=O)O)c1`, the melting point lay in the range of 103 to 122 °C. With `O=C(Nc1c[nH]nc1C(=O)NCCNc1ccccn1)c1ccccn1` the figure was 260 to 262 °C; with `CC(NC1CCC(=O)NC1c1ccc(F)cc1)c1cc(C(F)(F)F)cc(C(F)(F)F)c1` (stereo not drawn), 120 °C. In the case of `Cc1cc(CO)c(C(=O)O)c(S)n1`, the melting point was above 270 °C. Under `O=C1c2ccccc2C(=O)N1CCCCOc1ccc([N+](=O)[O-])cc1` stands 112 to 114 °C; under `NN1C=NNC1=Cc1ccccc1`, 171 to 173 °C.

On to `O=C(NC1CCN(CCc2[nH]c(=O)[nH]c2-c2ccc(F)cc2)CC1)c1ccccc1`, for which the melting point was 218 to 220 °C.

Turning to `O=C1c2ccccc2C(=O)N1CC=CCn1ccnc1`, the melting point lay within 106 to 108 °C. Consider `COc1ccc2[nH]c3c(c2c1)C[C@@]1(C)C(=O)N(CCN2CCOCC2)C(=O)N1[C@@H]3c1cccc(O)c1` (racemic), for which the melting point lay within 260 to 263 °C. With `O=C(NCCN1CCCCC1)Nc1ccc(-c2nnc(CSCCOc3ccccc3)o2)cc1` the figure was 126 to 128 °C; with `CCCC(=O)NCCCCn1c(C)nc2c(N)nc3ccccc3c21`, 169 to 170 °C; with `FC(F)(F)c1cc(Br)c2nc(N3CCN(c4ncc(Cl)cc4Cl)CC3)[nH]c2c1`, 176 to 179 °C. In the case of `CO/N=C(\C(=O)OC)c1csc(O)n1`, the melting point was in the range of 97 to 98 °C. Under `Cc1ccc2c(c1)N(C(=O)NCCN1CCC(CCCN(C(C)C)C(C)C)CC1)c1ncccc1NC2=O` stands 160 to 162 °C; under `COC(=O)C(Cc1ccccc1)Nc1nnc(N)s1` (stereo not drawn), 186 to 189 °C; under `COc1ccc(-c2[nH]cnc2-c2cc(OC)c(N)c(OC)c2)cc1N`, 140 to 142 °C. Under `COc1ccc(S(=O)(=O)c2cnc(C)nc2Nc2c(C)cc(C)cc2C)cc1` stands 153 to 155 °C; under `Nc1cc(=O)n(Cc2cccc([N+](=O)[O-])c2)[nH]1`, 163 °C; under `COc1c(F)c(F)cc(C(N)=O)c1F`, 130 to 133 °C. With `COc1c(F)cc(NN)cc1F` the figure was 60.5 to 62.3 °C. For `O=C(Nc1ccc(C(F)(F)F)cc1)N1CC2CCc3ccccc3C2=N1` (stereo not drawn), the melting point fell in the range of 149 to 151 °C. Turning to `CCOC(=O)C1=CC(CF)(CF)Oc2ccc(I)cc21`, the melting point lay in the range of 89 to 90 °C. Under `CC(C)(O)c1ccc(C(=O)Nc2cn3cc(-n4ccnc4)ccc3n2)cc1` stands 281 to 282 °C; under `CN1CC(=O)N2[C@H](c3ccc4c(c3)CCN4)c3[nH]c4ccccc4c3C[C@@H]2C1=O`, 240 °C; under `CCOC(=O)c1cn(-c2ncns2)c2nc(Cl)c(F)cc2c1=O`, 203 to 206 °C.

`COc1ccc(C2(C#N)C=C(C#N)CCC2)cc1OC1CCCC1` (stereo not drawn) displayed a melting point of 77 to 79 °C. `COc1cc2c(cc1OC)-c1c(Cl)nc3ccccc3c1C2=O` showed a melting point of 132 to 133 °C. Under `CCOC(=O)c1cc([N+](=O)[O-])c(Nc2cccc(C)n2)c(S(N)(=O)=O)c1` stands 203 to 204 °C; under `Oc1c2c(nn1-c1ccc(F)cc1)CCc1cc(F)ccc1-2`, 220 to 221 °C. Under `CCCCCCCCCCCCCCCCOc1nc2ccc(C)cc2c(=O)o1` stands 67 °C. With `O=C(O)COc1ccc(-c2c3ccccc3cc3sc4ccccc4c23)cc1I` the figure was 248 to 249 °C; with `CC(C)(C)[Si](C)(C)OCCN(CCON1C(=O)c2ccccc2C1=O)CCON1C(=O)c2ccccc2C1=O`, 56 to 58 °C; with `Cc1cc(Oc2ccc(NC(=O)N3CCc4ccccc4CC3)cn2)ccc1Cl`, 171 to 173 °C. As for `Cc1ccc(C2CCCN2S(=O)(=O)c2ccc(Cl)cc2)cc1` (racemic), the melting point worked out at 129 °C.

For the molecule `O=C(O)c1ccc(OCCNC(=O)C2Cc3ccccc3N2S(=O)(=O)c2ccc(-c3cccc(C(F)(F)F)c3)cc2)cc1Cl` (stereo not drawn), the melting point fell in the range of 104 to 108 °C. For the molecule `COc1ccc2c(c1)c(CC(=O)OCC(=O)O)c(C)n2C(=O)c1ccccc1F`, the melting point lay in the range of 172 to 173 °C. `O=C1N/C(=C\C2CC2)C(O)=C1c1ccccc1` returned a melting point of 167 to 170 °C. Under `Nc1n[nH]c(-c2ccco2)n1` stands 204 to 206 °C. Turning to `Cc1nc(C(Cl)(Cl)Cl)nc(OC(=O)C(Cl)(Cl)Cl)c1Cl`, the melting point was 92 °C. Under `CN=C1SCC(O)(c2ccc(Cl)c(S(=O)(=O)NCC(C)OC)c2)N1C` (stereo not drawn) stands 148 °C.

As for `O=[N+]([O-])c1cc(C(O)CCN2CCC(c3ccccc3)CC2)ccc1C1CCCCC1` (stereo not drawn), the melting point lay within 148 to 150 °C. With `CC(=O)OCC1OC(F)C(OC(C)=O)C(OC(C)=O)C1OC(C)=O` (stereo not drawn) the figure was 68 to 69 °C; with `C=CCc1cn2c(=O)c(C(=O)OCC)cnc2c2cc(OC)ccc12`, 182 to 186 °C; with `CCCCc1ccc(-c2ccc(CCC3OCC(CCC)CO3)cc2)c(F)c1` (stereo not drawn), 36 °C.
